Laboratory results taken from patent US10759826B2, “15β-substituted estrone derivatives as selective inhibitors of 17β-hydroxysteroid-dehydrogenases, method of preparation and use thereof” (USTAV ORGANICKE CHEMIE A BIOCHEMIE AV CR, V.V.I., priority 2016, dated 2020).

Assays:
human 17βHSD type 1 = molecular target: T1, human 17βHSD type 1 (Homo sapiens, UniProt P14061); assay: Inhibition of recombinant 17βHSD type 1, tritium-labeled substrate conversion; type: biochemical; conditions: for inhibition at 0.1 µM: 0.1 μmol · l^−1 test substance; for inhibition at 0.1 µM / inhibition at 1 µM: read-out: % of inhibition of human 17βHSD1; for inhibition at 1 µM: 1 μmol · l^−1 test substance
T1 construct: made in house; expressing system suspended in buffer, not purified
T1 sequence (P14061 1-328): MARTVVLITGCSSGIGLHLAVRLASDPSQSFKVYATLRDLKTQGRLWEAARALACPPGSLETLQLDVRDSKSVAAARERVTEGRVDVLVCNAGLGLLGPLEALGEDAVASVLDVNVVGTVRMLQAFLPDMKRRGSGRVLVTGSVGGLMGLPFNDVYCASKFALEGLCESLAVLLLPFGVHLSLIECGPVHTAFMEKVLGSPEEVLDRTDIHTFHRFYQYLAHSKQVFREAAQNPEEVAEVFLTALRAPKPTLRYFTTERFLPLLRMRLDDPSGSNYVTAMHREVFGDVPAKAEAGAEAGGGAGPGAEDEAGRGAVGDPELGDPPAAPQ
Description: The inhibitory activity of the test substances was determined for individual isoenzymes from the 17βHSD family, specifically these were the types 1, 2, 3, 4, 5 and 7. Escherichia coli and mammalian cells expression systems were used for recombinant expression of individual isozymes of human 17βHSD. Only in the case of 17HSD5 the enzyme was partially purified and supernatant obtained by centrifugation of the bacterial lysate was used for testing. Systems expressing specific 17βHSD type were suspended in a reaction buffer and incubated with tritium-labeled substrates and respective cofactors at 37° C. in two parallel tests: the control arrangement (DMSO without the inhibitor) and the test arrangement (DMSO with the inhibitor). DMSO serves as a negative control in this case. After 20-30% of the substrate was converted by the activity of the enzyme to the product in a control test, both tests were terminated. Substrate and product from the test arrangement were isolated by SPE (solid phase extraction), and then separated by reverse phase HPLC. Substrate conversion was determined by integration of the signals of the substrate and product, and was expressed in %. For the purposes of the subsequent calculation of enzyme inhibition, the conversion of the control test was designated as 0% inhibition. All tests were performed in triplicates. IC50 values were subsequently determined by a standard method using the “One Ligand Binding” model of SigmaPlot kinetics module (Schustera et. al. J. Ster. Biochem. Mol. Biol. 2011, 125, 148; Möller et. al. Biioorg. Med. Chem. Lett. 2009, 19, 6740; Möller et. al. PLoS One, 2010, 5, 6, e10969).

androgen receptor (AR) = molecular target: T2, androgen receptor (AR) (Homo sapiens, UniProt P10275); assay: AR luciferase reporter assay in U2OS cells; type: cell-based; conditions: for AR antagonism in words: testing range 10 μmol·l^−1 to 1 nmol·l^−1
T2 construct: expressed in transfected cells
T2 sequence (P10275 1-920): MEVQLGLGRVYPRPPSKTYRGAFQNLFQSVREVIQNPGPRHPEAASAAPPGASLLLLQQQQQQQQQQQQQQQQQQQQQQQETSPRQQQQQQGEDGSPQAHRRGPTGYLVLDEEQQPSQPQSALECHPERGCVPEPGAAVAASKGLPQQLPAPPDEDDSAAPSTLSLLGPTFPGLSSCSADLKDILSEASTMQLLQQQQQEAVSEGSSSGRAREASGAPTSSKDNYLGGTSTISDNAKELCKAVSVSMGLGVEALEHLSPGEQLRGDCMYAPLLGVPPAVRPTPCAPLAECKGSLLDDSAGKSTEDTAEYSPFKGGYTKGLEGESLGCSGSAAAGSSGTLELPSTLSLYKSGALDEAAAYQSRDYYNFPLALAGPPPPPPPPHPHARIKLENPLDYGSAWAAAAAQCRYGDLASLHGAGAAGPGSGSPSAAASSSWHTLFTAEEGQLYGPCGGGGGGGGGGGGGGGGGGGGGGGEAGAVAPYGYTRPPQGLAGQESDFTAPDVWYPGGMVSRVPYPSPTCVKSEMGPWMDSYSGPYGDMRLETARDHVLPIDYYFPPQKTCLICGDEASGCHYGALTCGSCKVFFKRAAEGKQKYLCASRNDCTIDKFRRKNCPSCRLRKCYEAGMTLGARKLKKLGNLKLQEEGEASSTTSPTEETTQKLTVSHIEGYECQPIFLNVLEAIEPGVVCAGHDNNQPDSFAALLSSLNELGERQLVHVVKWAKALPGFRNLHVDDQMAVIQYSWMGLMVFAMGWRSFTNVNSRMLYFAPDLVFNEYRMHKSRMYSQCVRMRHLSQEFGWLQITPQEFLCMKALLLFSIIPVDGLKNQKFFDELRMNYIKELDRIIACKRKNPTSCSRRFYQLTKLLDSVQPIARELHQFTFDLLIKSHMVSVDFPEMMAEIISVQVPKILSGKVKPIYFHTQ

DU145 = assay: 7 day proliferation assay, DU145; type: cell-based; conditions: 1 μmol·l^−1, 7 days
Description: (§1) In this study, T47D cells were propagated in RPMI 1640 medium supplemented with 10% fetal bovine serum, 2 mmol^·l^−1 glutaMAX (Thermo Fisher Scientific, MA, USA), and penicillin/streptomycin (Thermo Fisher Scientific, Waltham, USA) and incubated in a 5% CO2-humidified atmosphere at 37° C. to the amount needed for the experiment. Two days prior to testing of compounds, growth medium was changed to medium without phenol red, supplemented with 2 mmol^·l^−1 Glutamax and 4% FBS depleted of lipophilic components (including the endogenous estrogenic substances) (Hyclone, GE Healthcare Life Sciences, USA). Two days after the medium replacement, the cells were harvested, counted and resuspended in a medium. Cells were dispensed with liquid dispenser Multidrop (Thermo Fisher Scientific, Waltham, USA), to the cell culture treated, 12-well plates (Corning Inc., NY, USA) at 100 000 cells/well in 1 mL of total media volume. […] After 7 days of cell cultivation with compounds, cells were harvested and counted. […]
(§2) Compounds 9 and 12 were tested in the proliferation assay with cell lines derived from the triple negative breast cancer (MDA-MB-231), AR-negative prostate cancer (PC3, DU145) and ovarian cancer (SK-OV-3, CaoV-3). […] At the end of the treatment, cells were harvested and counted. […]

SK-OV-3 = assay: 7 day proliferation assay, SK-OV-3; type: cell-based; conditions: 1 μmol·l^−1, 7 days
Description: as §1, §2

CaOV-3 = assay: 7 day proliferation assay, CaOV-3; type: cell-based; conditions: 1 μmol·l^−1, 7 days
Description: as §1, §2

Structure (SMILES) | inhibition at 0.1 µM (human 17βHSD type 1) [%] | inhibition at 1 µM (human 17βHSD type 1) [%] | IC50 (human 17βHSD type 1; read-out: 17βHSD1 IC50) [µM] | AR antagonism in words (androgen receptor (AR)) | % of survived cells compared to untreated samples, DU145 (DU145) [%] | % of survived cells compared to untreated samples, SK-OV-3 (SK-OV-3) [%] | % of survived cells compared to untreated samples, CaOV-3 (CaOV-3) [%] | IC50 (androgen receptor (AR); antagonist mode, 1 nmol·l^−1 DHT) [µM]
COc1ccc(CC[C@@H]2CC(=O)[C@@]3(C)CC[C@@H]4c5ccc(O)cc5CC[C@H]4[C@H]23)cc1 [Compound 9, 3-Hydroxy-15β-(4-methoxyphenethyl)-estra-1,3,5 (10)-trien-17-one] | 91 | 100 | 0.01 | AR antagonist | 98 | 113 | 94 | 
CCOc1ccc(CC[C@@H]2CC(=O)[C@@]3(C)CC[C@@H]4c5ccc(O)cc5CC[C@H]4[C@H]23)cc1 [Compound 12, 15β-(4-Ethoxyphenethyl)-3-hydroxy-estra-1,3,5(10)-trien-17-one] | 85 | 88 |  | antagonists of both types of receptors | 86 | 97 | 88 | 89.1
